Test results published in patent US8039465B2, “Cytoskeletal active compounds, composition and use” (priority 2005, dated 2011).

Assays:
non-muscle actin = test: Actin Polymerization Inhibition Assay (Actin Polymerization Biochem Kit, pyrene actin fluorescence); type: biochemical; conditions: inhibition of actin polymerization (pyrene-labeled actin fluorescence increase) at standard test concentration of 10 uM
Experimental: The quantative effects of the test compounds on the kinetics of actin polymerization were determined using a non-muscle actin polymerization kit, Actin Polymerization Biochem Kit, according to the instructions of the manufacturer (Cytoskeleton Inc; Denver, Colo.). This assay evaluates the fluorescence intensity of pyrene actin, which is greater for polymeric actin than for monomeric actin. The ability of the test compounds to inhibit actin assembly was determined by measuring their ability to inhibit this increase in the fluorescence intensity of the pyrene-labeled actin. Results were expressed as the percent inhibition measured at a standard test concentration of 10 uM.

NIH/3T3 cells = test: NIH/3T3 Cell Morphology Assay (phalloidin staining, degree of actin disruption); type: cell-based; conditions: 30 minutes at 37° C., 10 nM to 100 uM tested, TRITC-phalloidin imaging
Experimental: NIH/3T3 cells were grown in DMEM-H containing glutamine and 10% Colorado Calf Serum. Cells were passaged regularly prior to reaching confluence. Eighteen to 24 hours prior to experimentation, the cells were plated onto Poly-L-Lysine-coated glass coverslips. On the day of experimentation, the cell culture medium was removed and was replaced with medium containing from 10 nM to 100 uM of the test compound, and the cells were incubated for 30 minutes at 37° C. The culture medium was then removed and the cells were washed with warmed PBS and fixed for 10 minutes with warmed 4% paraformaldehyde. The cells were permeabilized with 0.5% Triton-X, stained with TRITC-conjugated phalloidin and imaged using a Nikon Eclipse E600 epifluorescent microscope to determine the degree of actin disruption. Results were expressed as the concentration at which complete disruption of the actin cytoskeleton was observed.

SMILES | Percent inhibition at 10 uM (non-muscle actin) | Concentration giving complete actin disruption (NIH/3T3 cells)
C=CCCC[C@@H]1C[C@@H](OC(=O)/C=C(/C)CCC=C)C[C@](O)([C@@H]2CSC(=O)N2)O1 [Compound 1, (Z)-((2R,4R,6R)-2-Hydroxy-2-((R)-2-oxothiazolidin-4-yl)-6-(pent-4-enyl)-tetrahydro-2H-pyran-4-yl) 3-Methylhepta-2,6-dienoate] | 52.3% | 
C=CCCC[C@@H]1C[C@@H](NC(=O)/C=C(/C)CCC=C)C[C@](O)([C@@H]2CSC(=O)N2)O1 [Compound 1a, (Z)-N-((2R,4R,6R)-2-Hydroxy-2-((R)-2-oxothiazolidin-4-yl)-6-(pent-4-enyl)-tetrahydro-2H-pyran-4-yl)-3-methylhepta-2,6-dienamide] | 32.4% | 
C=CCCC[C@@H]1C[C@@H](OC(=O)c2ccccc2)C[C@](O)([C@@H]2CSC(=O)N2)O1 [Compound 4, (2R,4R,6R)-2-Hydroxy-2-((R)-2-oxothiazolidin-4-yl)-6-(pent-4-enyl)-tetrahydro-2H-pyran-4-yl Benzoate] | 52.0% | 
C=CCCC[C@@H]1C[C@@H](OC(=O)c2ccc(OC)cc2)C[C@](O)([C@@H]2CSC(=O)N2)O1 [Compound 4a, (2R,4R,6R)-2-Hydroxy-2-((R)-2-oxothiazolidin-4-yl)-6-(pent-4-enyl)-tetrahydro-2H-pyran-4-yl 4-Methoxybenzoate] | 42.2% | 
C=CCCC[C@@H]1C[C@@H](OC(=O)c2ccc(S(C)(=O)=O)cc2)C[C@](O)([C@@H]2CSC(=O)N2)O1 [Compound 4b, (2R,4R,6R)-2-Hydroxy-2-((R)-2-oxothiazolidin-4-yl)-6-(pent-4-enyl)-tetrahydro-2H-pyran-4-yl 4-(Methylsulfonyl)benzoate] | 45.6% | 
C/C1=C/C(=O)O[C@@H]2C[C@@H](CCC/C=C\CC1)O[C@@](O)([C@@H]1CSC(=O)N1)C2 [Compound 8, (R)-4-((1R,4Z,8Z,13R,15R)-15-Hydroxy-5-methyl-3-oxo-2,14-dioxa-bicyclo[11.3.1]heptadeca-4,8-dien-15-yl)thiazolidin-2-one] | 69.9% | 5 µM
C/C1=C/C(=O)O[C@@H]2C[C@@H](CCC/C=C/CC1)O[C@@](O)([C@@H]1CSC(=O)N1)C2 [Compound 8a, (R)-4-((1R,4Z,8E,13R,15R)-15-Hydroxy-5-methyl-3-oxo-2,14-dioxa-bicyclo[11.3.1]heptadeca-4,8-dien-15-yl)thiazolidin-2-one] | 67.2% | 15 µM
C/C1=C/C(=O)O[C@@H]2C[C@@H](CC[C@H](C)/C=C/CC1)O[C@@](O)([C@@H]1CSC(=O)N1)C2 [Compound 8b, (R)-4-((1R,4Z,8E,10S,13R,15R)-15-Hydroxy-5,10-dimethyl-3-oxo-2,14-dioxa-bicyclo[11.3.1]heptadeca-4,8-dien-15-yl)thiazolidin-2-one] | 61.7% | 25 µM
C/C1=C/C(=O)N[C@@H]2C[C@@H](CCC/C=C\CC1)O[C@@](O)([C@@H]1CSC(=O)N1)C2 [Compound 8c, (1R,4Z,8Z,13R,15R)-15-Hydroxy-5-methyl-15-((R)-2-oxothiazolidin-4-yl)-14-oxa-2-aza-bicyclo[11.3.1]heptadeca-4,8-dien-3-one] | 44.9% | 
C/C1=C/C(=O)O[C@@H]2C[C@@H](CCCCCCC1)O[C@@](O)([C@@H]1CSC(=O)N1)C2 [Compound 10, (R)-4-((1R,13R,15R,Z)-15-Hydroxy-5-methyl-3-oxo-2,14-dioxa-bicyclo[11.3.1]heptadec-4-en-15-yl)thiazolidin-2-one] | 44.1% | 
O=C1CCCC/C=C\CCC[C@@H]2C[C@H](C[C@](O)([C@@H]3CSC(=O)N3)O2)O1 [Compound 10a, (R)-4-((1R,13R,15R,Z)-15-Hydroxy-3-oxo-2,14-dioxa-bicyclo[11.3.1]heptadec-8-en-15-yl)thiazolidin-2-one] | 14.0% | 
O=C1CCCCCCCCC[C@@H]2C[C@H](C[C@](O)([C@@H]3CSC(=O)N3)O2)O1 [Compound 10b, (R)-4-((1R,13R,15R)-15-Hydroxy-3-oxo-2,14-dioxa-bicyclo[11.3.1]heptadecan-15-yl)thiazolidin-2-one] | 21.8% | 
O=C1CCCCC/C=C/CCC[C@@H]2C[C@H](C[C@](O)([C@@H]3CSC(=O)N3)O2)O1 [Compound 10c, (R)-4-((1R,14R,16R,E)-16-Hydroxy-3-oxo-2,15-dioxa-bicyclo[12.3.1]octadec-9-en-16-yl)thiazolidin-2-one] | 21.7% | 
O=C1CCCCCCCCCC[C@@H]2C[C@H](C[C@](O)([C@@H]3CSC(=O)N3)O2)O1 [Compound 10d, (R)-4-((1R,14R,16R)-16-Hydroxy-3-oxo-2,15-dioxa-bicyclo[12.3.1]octadecan-16-yl)thiazolidin-2-one] | 10.4% | 
